Source: ChEMBL document CHEMBL5329190, “Screening and optimization of phage display cyclic peptides against the WDR5 WBM site” (RSC Med Chem, 2023)
pIC50: −log10 of the molar value.

These compounds were tested against WD repeat-containing protein 5 (Homo sapiens, UniProt P61964) (assay: Binding affinity to his sumo tagged N-terminal WDR5 (23 to […] residues) (unknown origin) incubated for 3 hrs by HTRF binding assay).

| Structure (SMILES) | pIC50 |
| --- | --- |
| CC(C)[C@H](NC(=O)[C@H](CC(=O)O)NC(=O)[C@H](C)NC(=O)[C@H](CCC(=O)O)NC(=O)CNC(=O)[C@H](CCC(=O)O)NC(=O)CNC(=O)[C@@H](N)CS)C(=O)N[C@@H](CS)C(=O)O | < 4.00 |
| NCCCC[C@H](NC(=O)[C@H](Cc1c[nH]c2ccccc12)NC(=O)[C@H](CCC(N)=O)NC(=O)[C@H](CC(N)=O)NC(=O)[C@@H]1CCCN1C(=O)[C@@H](N)CS)C(=O)N[C@@H](CO)C(=O)N[C@@H](Cc1ccc(O)cc1)C(=O)N[C@@H](CS)C(=O)O | < 4.00 |
| CC(C)C[C@H](NC(=O)[C@H](Cc1ccccc1)NC(=O)[C@@H](N)CS)C(=O)N[C@@H](CC(N)=O)C(=O)N[C@H](C(=O)N[C@@H](CO)C(=O)N[C@@H](CC(N)=O)C(=O)N[C@@H](C)C(=O)N[C@@H](CS)C(=O)O)C(C)C | < 4.00 |
